Our source for the IC50 values is patent US20240417405A1, “Substituted Spiro Derivatives” (Janssen Pharmaceutica NV, priority 2021, published 2024).

The structures appear in SMILES notation. A value given as a limit tells only on which side of the number the result lay.

The target in assay [1] is T1, menin/MLL (terbium chelate-labeled menin, FITC-MBM1 peptide) (Homo sapiens, UniProt O00255, T541A).
T1 construct: Menin (a.a 1-610-6xhis tag)
T1 sequence (O00255 with tags, fused parts or gaps T541A): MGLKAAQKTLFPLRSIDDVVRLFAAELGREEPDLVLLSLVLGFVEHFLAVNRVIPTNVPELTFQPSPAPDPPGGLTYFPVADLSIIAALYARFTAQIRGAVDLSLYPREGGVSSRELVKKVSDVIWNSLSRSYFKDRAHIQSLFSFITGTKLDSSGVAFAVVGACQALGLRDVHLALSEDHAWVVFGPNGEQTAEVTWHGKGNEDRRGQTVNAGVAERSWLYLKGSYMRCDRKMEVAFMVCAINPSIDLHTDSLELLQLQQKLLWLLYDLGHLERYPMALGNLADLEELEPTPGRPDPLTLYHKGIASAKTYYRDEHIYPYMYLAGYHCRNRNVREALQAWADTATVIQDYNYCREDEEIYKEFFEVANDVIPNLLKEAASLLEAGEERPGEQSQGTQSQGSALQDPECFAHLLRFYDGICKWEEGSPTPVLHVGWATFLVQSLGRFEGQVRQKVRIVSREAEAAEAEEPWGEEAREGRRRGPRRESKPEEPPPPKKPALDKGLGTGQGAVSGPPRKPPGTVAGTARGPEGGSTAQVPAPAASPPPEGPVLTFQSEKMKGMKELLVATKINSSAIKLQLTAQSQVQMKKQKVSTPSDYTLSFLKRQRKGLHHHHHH
The experiment in a line: Menin/MLL homogenous time-resolved fluorescence (HTRF) assay. It is filed as binding. Particulars: 30 min incubation. The method, then: 1) Menin/MLL Homogenous Time-Resolved Fluorescence (HTRF) Assay
To an untreated, white 384-well microtiter plate was added 40 nL 200× test compound in DMSO and 4 μL 2× terbium chelate-labeled menin (vide infra for preparation) in assay buffer (40 mM Tris.HCl, pH 7.5, 50 mM NaCl, 1 mM DTT (dithiothreitol) and 0.05% Pluronic F-127). After incubation of test compound and terbium chelate-labeled menin for 30 min at ambient temperature, 4 μL 2× FITC-MBM1 peptide (FITC-β-alanine-SARWRFPARPGT-NH2 (SEQ ID NO: 3)) (“FITC” means fluorescein isothiocyanate) in assay buffer was added, the microtiter plate centrifuged at 1000 rpm for 1 min and the assay mixtures incubated for 15 min at ambient temperature. The relative amount of menin FITC-MBM1 complex present in an assay mixture is determined by measuring the homogenous time-resolved fluorescence (HTRF) of the terbium/FITC donor/acceptor fluorophore pair using an EnVision microplate reader (ex. 337 nm/terbium em. 490 nm/FITC em. 520 nm) at ambient temperature. The degree of fluorescence resonance energy transfer (the HTRF value) is expressed as the ratio of the fluorescence emission intensities of the FITC and terbium fluorophores (F^em 520 nm/F^em 490 nm). The final concentrations of reagents in the binding assay are 200 pM terbium chelate-labeled menin, 75 nM FITC-MBM1 peptide and 0.5% DMSO in assay buffer. Dose-response titrations of test compounds are conducted using an 11 point, four-fold serial dilution scheme, starting typically at 10 μM.
Compound potencies were determined by first calculating % inhibition at each compound concentration according to equation 1:
% inhibition=((HC−LC)−(HTRF^compound−LC))/(HC−LC))*100 (Eqn 1)
Where LC and HC are the HTRF values of the assay in the presence or absence of a saturating concentration of a compound that competes with FITC-MBM1 for binding to menin, and HTRF^compound is the measured HTRF value in the presence of the test compound. HC and LC HTRF values represent an average of at least 10 replicates per plate.
% inhibition=Bottom+(Top−Bottom)/(1+10^((logIC50−log[cmpd])*h)) (Eqn 2)
Where Bottom and Top are the lower and upper asymptotes of the dose-response curve, respectively, IC50 is the concentration of compound that yields 50% inhibition of signal and h is the Hill coefficient. IC50 values below 0.1 nM in the HTRF assay were reported as 0.1 nM in the Table below (detection limit).
Preparation of Terbium cryptate labeling of Menin: Menin (a.a 1-610-6xhis tag (“6xhis tag” disclosed as SEQ ID NO: 2), 2.3 mg/mL in 20 mM Hepes (2-[4-(2-Hydroxyethyl)-1-piperazinyl]ethane sulfonic acid), 80 mM NaCl, 5 mM DTT (Dithiothreitol), pH 7.5) was labeled with terbium cryptate as follows. 200 μg of Menin was buffer exchanged into 1× Hepes buffer. 6.67 μM Menin was incubated with 8-fold molar excess NHS (N-hydroxysuccinimide)-terbium cryptate for 40 minutes at room temperature. Half of the labeled protein was purified away from free label by running the reaction over a NAP5 column with elution buffer (0.1 M Hepes, pH 7+0.1% BSA (bovine serum albumin)). The other half was eluted with 0.1 M phosphate buffered saline (PBS), pH7. 400 μl of eluent was collected for each, aliquoted and frozen at −80° C. The final concentration of terbium-labeled Menin protein was 115 μg/mL in Hepes buffer and 85 μg/mL in PBS buffer, respectively.

The subject of the next assay is MOLM14 cells. The experiment in a line: Proliferation assay, spheroid-like growth, MOLM14 (MLL-AF9 rearranged). The format is cell-based, human. Particulars: Homo sapiens, MOLM-14, 192 h, 8 days, confluence as measure of spheroid size, read-out: spheroid assay_OneTime MOLM14 IC50. The method, then:
The anti-proliferative effect of menin/MLL protein/protein interaction inhibitor test compounds was assessed in human leukemia cell lines. The cell line MOLM14 harbors a MLL translocation and expresses the MLL fusion proteins MLL-AF9, respectively, as well as the wildtype protein from the second allele. […] KO-52 was used as a control cell line containing two MLL (KMT2A) wildtype alleles in order to exclude compounds that display general cytotoxic effects.
MOLM14 cells were cultured in RPMI-1640 (Sigma Aldrich) supplemented with 10% heat-inactivated fetal bovine serum (HyClone), 2 mM L-glutamine (Sigma Aldrich) and 50 μg/ml gentamycin (Gibco). KO-52 cell lines were propagated in alpha-MEM (Sigma Aldrich) supplemented with 20% heat-inactivated fetal bovine serum (HyClone), 2 mM L-glutamine (Sigma Aldrich) and 50 μg/ml gentamycin (Gibco).
In order to assess the anti-proliferative effects, 200 MOLM14 cells, or 300 KO-52 cells were seeded in 200 μl media per well in 96-well round bottom, ultra-low attachment plates (Costar, catalogue number 7007). Cell seeding numbers were chosen based on growth curves to ensure linear growth throughout the experiment. Test compounds were added at different concentrations and the DMSO content was normalized to 0.3%. Cells were incubated for 8 days at 37° C. and 5% CO2. Spheroid like growth was measured in real-time by live-cell imaging (IncuCyteZOOM, Essenbio, 4× objective) acquiring images at day 8. Confluence (%) as a measure of spheroid size was determined using an integrated analysis tool.
In order to determine the effect of the test compounds over time, the confluence in each well as a measure of spheroid size, was calculated. Confluence of the highest dose of a reference compound was used as baseline for the LC (Low control) and the confluence of DMSO treated cells was used as 0% cytotoxicity (High Control, HC).
Absolute IC50 values were calculated as percent change in confluence as follows:
LC=Low Control: cells treated with e.g. 1 μM of the cytotoxic agent staurosporin, or e.g. cells treated with a high concentration of an alternative reference compound
GraphPad Prism (version 7.00) was used to calculate the IC50. Dose-response equation was used for the plot of % Effect vs Log 10 compound concentration with a variable slope and fixing the maximum to 100% and the minimum to 0%.

Usually IC50 stands for the concentration that inhibits the measured activity by half. With `CC(C)[C@H]([C@H]1C[C@@H](NC2(C)CCS(=O)(=O)CC2)C1)N1CC2(CCN(c3ncnnc3Oc3ccc(F)cc3-c3cncnc3C3CC3)C2)C1` (single isomer, unassigned) [Compound 44], the values for the IC50 (in assay [1]; with MOLM14 cells) were 0.1 nM and 27 nM, respectively.

As to `CC(=O)N1CCCN([C@H]2C[C@@H]([C@@H](C(C)C)N3CC4(CCN(c5ncnnc5Oc5ccc(F)cc5-c5cncnc5C5CC5)C4)C3)C2)CC1` (single isomer, unassigned) [Compound 61], the IC50 in assay [1] amounted to 0.2 nM; with MOLM14 cells, 23 nM.

Regarding `CC(C)[C@H]([C@H]1C[C@@H](N2CCC3(CCO3)C2)C1)N1CC2(CCN(c3ncnnc3Oc3ccc(F)cc3-c3cncnc3C3CC3)C2)C1` (single isomer, unassigned) [Compound 212], the IC50 worked out at 0.2 nM in assay [1] and 8 nM in the assay with MOLM14 cells.

On to `CC(C)[C@H]([C@H]1C[C@@H](NC2CS(=O)(=O)C2)C1)N1CC2(CCN(c3ncnnc3Oc3ccc(F)cc3-c3cncnc3C3CC3)C2)C1` (single isomer, unassigned) [Compound 235], for which the figures for the IC50 (in assay [1]; in the assay with MOLM14 cells) were 0.5 nM and 3 nM, respectively.

For `CC(C)[C@H]([C@H]1C[C@@H](N2CCNC(=O)C2)C1)N1CC2(CCN(c3ncnnc3Oc3ccc(F)cc3-c3cncnc3C3CC3)C2)C1` (single isomer, unassigned) [Compound 240], the IC50 in assay [1] turned out to be 1.9 nM; with MOLM14 cells it was 270 nM.

Consider `CC(C)[C@H]([C@H]1C[C@H](N2CCNC(=O)C2)C1)N1CC2(CCN(c3ncnnc3Oc3ccc(F)cc3-c3cncnc3C3CC3)C2)C1` (single isomer, unassigned) [Compound 241], for which the figures for the 50% inhibitory concentration (IC50) (in assay [1]; with MOLM14 cells) were 2.1 nM and 510 nM, respectively.

Regarding `CC(C)[C@@H]([C@H]1C[C@@H](N2C[C@H]3COC[C@H]3C2)C1)N1CC2(CCN(c3ncnnc3Oc3ccc(F)cc3-c3cncnc3C3CC3)C2)C1` (single isomer, unassigned) [Compound 244], the values for the IC50 (in assay [1]; with MOLM14 cells) were 1.6 nM and 130 nM, respectively.

For `CC(C)[C@H]([C@H]1C[C@@H](N2CC3(CCCO3)C2)C1)N1CC2(CCN(c3ncnnc3Oc3ccc(F)cc3-c3cncnc3C3CC3)C2)C1` (single isomer, unassigned) [Compound 246], the half-maximal inhibitory concentration (IC50) was found to be 0.3 nM in assay [1] and 180 nM with MOLM14 cells.

In the case of `CC(C)[C@H]([C@H]1C[C@@H](N2CC3(CCOC3)C2)C1)N1CC2(CCN(c3ncnnc3Oc3ccc(F)cc3-c3cncnc3C3CC3)C2)C1` (single isomer, unassigned) [Compound 247], the IC50 in assay [1] was 0.1 nM; with MOLM14 cells, 9 nM.

Turning to `CC(C)[C@H]([C@H]1C[C@@H](N2CC3(CCS(=O)(=O)CC3)C2)C1)N1CC2(CCN(c3ncnnc3Oc3ccc(F)cc3-c3cncnc3C3CC3)C2)C1` (single isomer, unassigned) [Compound 249], the figures for the IC50 (in assay [1]; with MOLM14 cells) were 0.1 nM and 9 nM, respectively.

For the compound `COC1(C)CN([C@H]2C[C@@H]([C@H](C(C)C)N3CC4(CCN(c5ncnnc5Oc5ccc(F)cc5-c5nnccc5C5CC5)C4)C3)C2)C1` (single isomer, unassigned) [Compound 263], the IC50 in assay [1] was 0.2 nM; in the assay on MOLM14 cells, 9 nM.

In the case of `CC(C)[C@@H]([C@H]1C[C@@H](N2CC3(CCCO3)C2)C1)N1CC2(CCN(c3ncnnc3Oc3ccc(F)cc3-c3nnccc3C3CC3)C2)C1` (single isomer, unassigned) [Compound 265], the IC50 worked out at 0.1 nM in assay [1] and 11 nM with MOLM14 cells.

For the compound `CC(C)[C@@H]([C@H]1C[C@@H](N2CC3(CCCCO3)C2)C1)N1CC2(CCN(c3ncnnc3Oc3ccc(F)cc3-c3nnccc3C3CC3)C2)C1` (single isomer, unassigned) [Compound 266], the IC50 in assay [1] is 0.1 nM; in the assay on MOLM14 cells, less than 2 nM.

In the case of `CC(C)[C@H]([C@H]1C[C@@H](N2CC3(CCCCO3)C2)C1)N1CC2(CCN(c3ncnnc3Oc3ccc(F)cc3-c3nnccc3C3CC3)C2)C1` (single isomer, unassigned) [Compound 267], the half-maximal inhibitory concentration (IC50) in assay [1] stood at 1.3 nM; with MOLM14 cells, 180 nM.

As to `CC(C)[C@@H]([C@H]1C[C@@H](N2CCC3(CCO3)C2)C1)N1CC2(CCN(c3ncnnc3Oc3ccc(F)cc3-c3nnccc3C3CC3)C2)C1` (single isomer, unassigned) [Compound 268], the IC50 in assay [1] was 0.1 nM; with MOLM14 cells, 6 nM.

Turning to `CC(C)[C@H]([C@H]1C[C@@H](N2CCC3(CCO3)C2)C1)N1CC2(CCN(c3ncnnc3Oc3ccc(F)cc3-c3nnccc3C3CC3)C2)C1` (single isomer, unassigned) [Compound 269], the IC50 is 5.6 nM in assay [1] and greater than 940 nM in the assay with MOLM14 cells.

With `CC(C)[C@@H]([C@H]1C[C@@H](N2CCC3(CCCO3)C2)C1)N1CC2(CCN(c3ncnnc3Oc3ccc(F)cc3-c3nnccc3C3CC3)C2)C1` (single isomer, unassigned) [Compound 270], the IC50 in assay [1] amounted to 0.2 nM; in the assay with MOLM14 cells, 2 nM.
